# Reference: patent EP0380370A2, “Inhibiting tumour recurrence after surgical resection” (The Children's Medical Center Corporation, priority 1989, dated 1990)
# Like-named read-outs stand apart in the source and are kept apart here. Where a SMILES comes first, the peptide text is derived from it.
# Key:
# [1] = system: B16-F10; test: in vitro tumor cell attachment assay on gelatinized culture plates (acid phosphatase colorimetric readout); type: cell-based
# Experimental: The following two examples of assays for suitable agents are designed to approximate a wound environment, and thus act as quick tests for suitable agents for practical use in particular circumstances. These assays are not limiting to the application. One example of an in vitro assay for determining the effect of one of the above agents on tumor cell attachment was performed as follows. Gelatinized 96-well tissue culture plates (Co-star, Cambridge, MA) were prepared by treating a standard culture plate with 100 microliters of 1.5% gelatin (Difco, Detroit, MI) in phosphate-buffered saline (PBS) and incubating the plate at 37°C for at least 24 hours. The solution was then aspirated and the cells washed twice with 200 microliters of PBS prior to use. Test agents were diluted in Dulbecco's Modified Eagles Medium (DMEM; Gibco Laboratories, Grand Island, NY) containing 10% fetal calf serum (FCS; Gibco), and 100 microliters of the diluted agent added to each well. […] The cells were grown in DMEM supplemented with 10% FCS, 2 mM glutamine and 100 units per ml penicillin and streptomycin.
# After the cells and agent were incubated, the medium was aspirated from each well and the well washed twice with 200 microliters of PBS. […] Briefly, 100 microliters of an acid phosphatase reagent (0.1M sodium acetate, 0.01M p-nitrophenyl phosphate, 0.1% Triton-X 100) was added to each well, the plates incubated at 37°C for two hours, and 10 microliters 1N NaOH added to each well. The optical density of each well was read at 405nm on a Biotek ELISA reader. The optical density is directly related to cell number. The results were expressed as percent of optical density in untreated control wells,and represent the mean of at least three wells.
# [2] = system: B16-F10; test: reversibility test: unattached cells washed and replated on gelatinized plates in new medium; type: cell-based; conditions: cells replated in fresh medium in new dishes
# Experimental: In order to determine whether inhibition of cell attachment was non-toxic and reversible with any particular agent, the tumor cells were incubated in the presence of the agent and unattached cells collected, washed twice with serum containing medium, and replated on gelatinized well plates in new culture medium. Control cells were handled in a similar manner, except that they were removed from wells 16 hours after incubation by trypsinization. After incubation for 4-16 hours, the medium was aspirated, the wells washed twice with 200 microliters of PBS, and the remaining attached cells trypsinized and counted with a Coulter counter.
# [3] = system: B16-F10 melonoma; type: in vivo, C57 B1/6 mice
# Experimental: Inhibitors of tumor cell attachment in vivo are tested by their ability to block tumor cell attachment in a surgical wound. Wounds were made on the backs of C57 B1/6 mice (Charles River Laboratories, Wilmington, MA) using aseptic procedures under methoxyflurane anesthesia (Pittman-Moore Inc., Washington Crossing, NJ). […] The scissors were used to create a lateral subcutaneous pocket off a dorsal mid-line wound in an uncontaminated animal. Prior to use, the scissors were inspected to insure that no visible tissue was present on them. Prior to closure, the wounds were vigorously irrigated with 3ml of Ringers lactate supplemented with a chosen agent. Excess fluid was then expressed and the wound closed with skin clips.
# [4] = system: cancer cells; conditions: cited from earlier work
compound,measurement,setting,value
"O=C(O)[C@@H]1CCN1 [LACA, L-azetidine-2-carboxylic acid]",minimal effective concentration,"[1]; Mus musculus, B16-F10, read-out: doses at which tumor cell attachment was inhibited",> 25 µg/mL
same,reversibility of inhibition of tumor cell attachment,[2],reversibly inhibited
N=C(N)NCCC[C@H](NC(=O)CN)C(=O)NCC(=O)N[C@@H](CC(=O)O)C(=O)N[C@@H](CO)C(=O)O [GRGDS],infection from use of the agents,"[3]; mouse, in vivo",No evidence of infection
same,wound healing process,"[3]; mouse, in vivo",nor was the wound healing process delayed
same,average volume of tumors formed in other animals,[3]; versus control animals,significantly smaller
same,formation of tumors in animals,[3]; wound irrigation,inhibited formation of a significant percentage of tumors
"N=C(N)NCCC[C@H](NC(=O)CN)C(=O)NCC(=O)N[C@@H](CC(=O)O)C(=O)N[C@@H](CO)C(=O)N1CCC[C@H]1C(=O)O [GRGDSP, glycine-arginine-glycine-aspartate-serine-proline]",concentrations at which tumor cell attachment was inhibited,[1],greater than 10 mg/ml
same,reversibility of inhibition of tumor cell attachment,[2],reversibly inhibited
monoxychlorosene,toxic effects locally and systemically,[4]; in vivo,highly toxic effects
same,toxicity to tissues,[4]; in vivo,toxic to tissues
same,wound healing process,[4]; in vivo,delayed the wound healing process
same,preventing tumor growth,[4]; one percent solution,ineffective
same,preventing tumor growth,[4]; two percent solutions,effective
"N=C(N)NCCC[C@H](NC(=O)CN)C(=O)NCC(=O)N[C@@H](CCC(=O)O)C(=O)N[C@@H](CO)C(=O)N1CCC[C@H]1C(=O)O [GRGESP, glycine-arginine-glycine-glutamate-serine-proline] (H-GRGESP-OH)",attachment of B16 melanoma cells,[1]; compared with GRGDSP,inhibited attachment of B16 melanoma cells but was less effective
[Na+].[O-]Cl [sodium hydrochlorite],preventing tumor growth,[4]; 0.5% solution buffered to pH 9,as effective as the above chemicals
same,toxicity to the animal,"[4]; in vivo, pH 9",considerably less toxic
